Measurements: PMC5356695, “A phase 1 study of oral ridaforolimus in pediatric patients with advanced solid tumors” (Oncotarget, 2016)

Key:
[1] = tested on: advanced solid tumors; assay: Antitumor activity, investigator assessment by RECIST v1.1; type: in vivo, human
Protocol: All patients were to have computed tomography or magnetic resonance imaging scans at baseline, every 2 cycles during treatment, and at the time of treatment discontinuation. Local investigator assessment of treatment response was performed using RECIST v1.1 [43].

[2] = tested on: heavily pretreated solid tumors; parameters: method as in PMID 23659969; conditions: cited from earlier work
[3] = parameters: method as in PMID 22037923; conditions: cited from earlier work
[4] = 1 patient with pineoblastoma, 22 mg/m^2

CO[C@H]1C[C@@H]2CC[C@@H](C)[C@@](O)(O2)C(=O)C(=O)N2CCCC[C@H]2C(=O)O[C@H]([C@H](C)C[C@@H]2CC[C@@H](OP(C)(C)=O)[C@H](OC)C2)CC(=O)[C@H](C)/C=C(\C)[C@@H](O)[C@@H](OC)C(=O)[C@H](C)C[C@H](C)/C=C/C=C/C=C/1C [ridaforolimus]
Patients discontinued due to progressive disease ([1]; 33 mg/m^2 (n = 13), 77%): 10 patients
Progression-free survival ([1]; 1 patient with diffuse intrinsic pontine glioma): > 42 months
Duration of stable disease ([1]; 1 patient with diffuse intrinsic pontine glioma, 33 mg/m^2, as of January 2016): 46 cycles
Duration of stable disease [1, 4]: 12 cycles
Progression-free survival [1, 4]: 12.8 months
Partial or complete response ([1]; all patients, N = 20): None of the patients had a partial or complete response
Patients with evidence of clinical benefit ([1]; of the 20 treated pediatric patients (10%)): 2 patients
Stable disease in patients with central nervous system tumors ([2]; intravenous 8-16 mg/m^2): 4 of 6
Stable disease in patients with sarcomas ([2]; intravenous 8-16 mg/m^2): 2 of 8
Patients with stable disease / clinical benefit ([2]; intravenous 8-16 mg/m^2 daily for 5 consecutive days every other week, of 15 evaluable (40%)): 6 patients
DLTs ([2]; intravenous 8–16 mg/m^2 daily for 5 consecutive days every other week): no DLTs were observed
Blood–brain barrier passage [3]: crosses the blood–brain barrier
